# Experimental data: patent publication US9650405B2, “Modified sophorolipids as oil solubilizing agents” (Polytechnic Institute of New York University, priority 2010, dated 2017)
# “And” between values parts separate entries of the source, which are not always exact repeats. Identical values can stand only once.
# Legend:
# [1] = Solubility of MSLs in water
# Text: If the material precipitates upon cooling or was to some extent insoluble, the insoluble material was separated by filtration, dried and weighed.
# [2] = Emulsion type: dilution test and oil soluble dye staining; format: physicochemical; settings: 2%-by-weight relative to water phase, oil/water 5/5 and 7/3
# Description: In this test the emulsion is diluted either with oil (O) or water (W). If the emulsion is O/W type and it is diluted with water, it will remain stable as water is the dispersion medium. However, if the emulsion is O/W type and it is diluted with oil, the emulsion will break as oil and water are not miscible with each other. […] Emulsions of the O/W type have separated layers after dilution with pure oil but form a homogenous phase when diluted by water. Unless otherwise specified, the emulsion type formed by MSLs were oil in water.
# In FIG. 13B, the tube on the left was diluted with 1 mL of oil whereas the tube on right was diluted with water. Visual observation of the tubes in FIG. 13B supports that the emulsions formed are indeed O/W emulsions.
# Oil Red O was applied as an oil soluble dye and emerald green as water soluble dye in the process of emulsion preparation. Observations of emulsions were made before and after staining under optical microscope at 400× magnification (FIG. 14). […] The formation of O/W emulsions and not W/O emulsions with this set of MSL compounds would not be obvious to one skilled in the art. We believe that O/W emulsions are formed by this set of MSLs due to that large sophorose polar head groups requires relatively more space than the lipid tails and, therefore self-assemble into spherical type structures where disaccharide groups are locating outside the droplets.
# [3] = Emulsion stability based on phase separation; format: physicochemical; settings: for emulsion layer volume-%, one month / emulsion layer volume-%, start: oil/water 5/5, 2%-by-weight; for emulsion layer volume-%, one month: one month at room temperature; for emulsion layer volume-%, start / emulsion layer, start: start of aging; for emulsion phase, one month / emulsion layer, start: oil/water 7/3, 2%-by-weight; for emulsion phase, one month: one month aging; for emulsion layer percentage: paraffin oil/water 5/5, 2%-by-weight emulsifier, after 24 hours at 25° C.
# Description: The emulsion was obtained by homogenizing the oil and water mixture and was allowed to settle at room temperature for 24 hours. […] Then, this mixture was homogenized at 13,000 rpm for 2 minutes. Thereafter, the resulting emulsion was left unagitated at 25° C. for 24 hours. Surfactants which give a larger emulsion phase are denoted as having higher emulsion effectiveness (Process Safety and Environment protection, 2005, 83, 38-46). […] Thus, unexpectedly, that longer alkyl chains, at least up to butyl and hexyl, provided improved interfacial stability at the paraffin oil/water interface. […] Apparently, ester bonds of SL-esters are less disruptive to organization at the oil water interface than amide bonds of SL-amides. […] The acidic SL (3) gave an 8% emulsion layer, much lower than the MSL examples given herein. Similarly, the natural SL (1) mixture gave a 10% emulsion layer. This performance is also far below that of SL-butyl amide (24), hexyl amide (25), butyl ester (8) and hexyl ester (16).
# After homogenized at 13,000 rpm for 2 minutes, the emulsions were kept at room temperature and separation of the respective oil, emulsion and water layers was recorded for up to 1 month.
# [4] = Emulsion droplet size distribution, Coulter LS 230 analyzer; format: physicochemical; settings: paraffin oil-to-water 7:3 v/v, 25° C.
# Description: Emulsified oil droplet size (average and standard deviation) was measured after suitable dilution of the emulsion phase using a Coulter LS 230 analyzer. […] Relative to natural and lactonic SL, selected MSLs show improved properties as emulsifiers on paraffin oil.
# After being aged for 3-months, emulsified oil droplet size (average and standard deviation) was measured after suitable dilution of the emulsion phase using a Coulter LS 230 analyzer and the results are listed in Table 5. […] However, increasing the surfactant concentration from 1 to 2% did result in substantially smaller emulsion-phase droplet sizes. […] This is evidence that MSL's can stabilize oil phases greatly decreasing their tendency to undergo coalescence. […] It follows that the results of 3-month aging studies support the utility of selected MSLs for formation and stabilization of oil-in-water emulsions of paraffin oil phases. One skilled in the art would expect that the ability of these MSLs to stabilize paraffin oil phases teaches that they would also stabilize oil phases of similar structure.
# [5] = Emulsion viscosity measurement; format: physicochemical
# Description: Viscosity was measured at 25° C. with increasing shear rate from 1 S^−1 to 750 S^−1. The viscosity change was monitored for aging times up to 3 months. For all samples, the paraffin oil/water ratio is 7/3 and the surfactant concentrations studied were 0.5%, 1% to 2%-by-weight relative to the oil phase. FIG. 19 presents the viscosity change with shear rate for different aging times. […] The emulsion tested was prepared using 2%-by-weight SL-butyl ester relative to paraffin oil. Viscosity decreases with increased shear rate implying the emulsion follows shear shinning. Furthermore, viscosity decreased with increased storage time. […] This change is consistent with the small increase in oil phase particle size (1.7 to 2.1 μm) with aging from 1 day to 3-months (Tables 4 and 5).
# Values of ηlow decreased with storage time to various extents that are dependent on the MSL compound used to stabilize the emulsion. […] The relative ability of different MSL structures to stabilize emulsions and thereby decrease the extent of decrease in viscosity as a function of aging time would not be predictable by one skilled in the art. The behavior as a function of MSL structure is related to emulsion dispersed phase droplet size. That is, the smaller the change in droplet size, the less decrease in emulsion viscosity occurs with increased aging time. Smaller changes in droplet size reflects the ability of the emulsifier to better stabilize particles. For example, the viscosity of the emulsion stabilized by SL-butyl amide decreased by 65% (from 344 Pas to 120 Pas) whereas the viscosity of the emulsion stabilized by SL-hexyl ester decreased by 20% (from 457 Pas to […]).
# The viscosity was measured 24 hours after emulsion preparation. The viscosity increased with increasing surfactant concentration. Such behavior could not have been predicted by one skilled in the art without the teaching provided in this disclosure. The extent of viscosity change with surfactant concentration is related to the interfacial free energy at the droplet surface that reduces with the increase of surfactant concentration.
# [6] = SL-esters; from earlier publication in Colloids and surfaces, 2004, 240, 75; cited from earlier work
# [7] = oil/water 7/3, 1% MSL, shear rate 1 S^−1
# [8] = oil/water 7/3, 2%-by-weight relative to paraffin oil, 25° C.
Solubility [1],emulsion type by Oil Red O staining [2],"emulsion layer volume-%, one month [3]","emulsion layer volume-%, start [3]","emulsion phase, one month [3]","emulsion layer, start [3]",emulsion layer percentage [3],"Average droplet size ([4]; 0.5 weight %, 24 hours)","Average droplet size ([4]; 0.5 weight %, aged 3-months)","Average droplet size ([4]; 1 weight %, 24 hours)","Average droplet size ([4]; 1 weight %, aged 3-months)","Average droplet size ([4]; 2 weight %, 24 hours)","Average droplet size ([4]; 2 weight %, aged 3-months)",Structure (SMILES),CMC Range [6],MST (minimum surface tension) [6],further results
<5000 µg/mL,O/W,65%,70%,85%,95%,65%,2.3 ± 0.4 μm,2.9 ± 0.2 μm,2.1 ± 0.3 μm,2.5 ± 0.1 μm,1.7 ± 0.2 μm,1.9 ± 0.1 μm,"CCCCCCOC(=O)CCCCCCCC=CCCCCCCC(C)OC1OC(CO)C(O)C(O)C1OC1OC(CO)C(O)C(O)C1O (stereo not drawn) [Compound 16, SL-Hexyl Ester]",3-4 10^−6M,34.0 mN/m,"low shear emulsion viscosity, after aging period [5, 7]: 459 Pas; low shear emulsion viscosity, before aging [5, 7]: 457 Pas; viscosity decrease over the aging period [5, 7]: 20%"
<3000 µg/mL,O/W,50%,65%,90%,95%,55%,2.5 ± 0.3 μm,3.5 ± 0.4 μm,2.4 ± 0.3 μm,3.1 ± 0.5 μm,1.7 μm and 1.7 ± 0.1 μm,2.1 μm and 2.1 ± 0.4 μm,"CCCCOC(=O)CCCCCCCC=CCCCCCCC(C)OC1OC(CO)C(O)C(O)C1OC1OC(CO)C(O)C(O)C1O (stereo not drawn) [Compound 8, SL-Butyl Ester]",7-9 10^−6M,34.5 mN/m,"emulsion viscosity at shear rate 1S^−1, after 3 months [5, 8]: 376 Pas; emulsion viscosity at shear rate 1S^−1, before aging [5, 8]: 465 Pas; viscosity decrease after 3 months ([5]; oil/water 7/3, 2%-by-weight, shear rate 1S^−1): 19.1%"
